Assay results published in patent publication US6914045B2, “Glycopeptide antibiotics” (Wyeth Holdings Corporation, priority 2001, dated 2005).
Values after ≈ are worked out from the molar mass of the structure shown.

What was measured:
Test in all cases: in vitro antibacterial evaluation, MIC by broth dilution
Type in all cases: cell-based
[1] = test system: Enterococcus sp.; conditions: broth dilution, 18 hours at 35° C.
In short: (§1)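 Test organisms, which included recent clinical isolates resistant to methicillin, penicillin and/or vancomycin, were inoculated at 5×10^5 CFU/mL into Muller-Hinton II […] containing antibiotic at 64-0.06 μg/mL. Minimum inhibitory concentrations were then read as the lowest level inhibiting growth.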

[2] = test system: Staphylococcus sp.; conditions: broth dilution, 18 hours at 35° C.
In short: as §1

[3] = test system: Streptococcus sp.; conditions: broth dilution, 18 hours at 35° C.
In short: as §1

[4] = test system: Escherichia coli; conditions: 18 hours at 35° C.

MIC Enterococcus avium (GC 4558) [1]: 4 µg/mL (≈ 2.65 µM)
MIC Enterococcus faecalis (ATCC 29212) [1]: 4 µg/mL (≈ 2.65 µM)
MIC Enterococcus faecalis (GC 2242) [1]: 4 µg/mL (≈ 2.65 µM)
MIC Enterococcus faecalis (GC 2691) [1]: 4 µg/mL (≈ 2.65 µM)
MIC Enterococcus faecalis (GC 3059) [1]: 4 µg/mL (≈ 2.65 µM)
MIC Enterococcus faecalis (GC 4552) [1]: 4 µg/mL (≈ 2.65 µM)
MIC Enterococcus faecalis (GC 4553) [1]: 4 µg/mL (≈ 2.65 µM)
MIC Enterococcus faecalis (GC 4554) [1]: 4 µg/mL (≈ 2.65 µM)
MIC Enterococcus faecalis (GC 6189) [1]: 4 µg/mL (≈ 2.65 µM)
MIC Enterococcus faecium (GC 2243) [1]: 4 µg/mL (≈ 2.65 µM)
MIC Enterococcus faecium (GC 4556) [1]: 4 µg/mL (≈ 2.65 µM)
MIC Enterococcus faecium (GC 4557) [1]: 4 µg/mL (≈ 2.65 µM)
MIC Enterococcus faecalis (ATCC 29212) ([1]; inoculum 5×10^5 CFU/mL, strain ATCC 29212): 4 µg/mL (≈ 2.65 µM)
MIC Enterococcus faecalis (GC 2242) ([1]; inoculum 5×10^5 CFU/mL, strain GC 2242): 4 µg/mL (≈ 2.65 µM)
MIC Enterococcus faecium (GC 2243) ([1]; inoculum 5×10^5 CFU/mL, strain GC 2243): 4 µg/mL (≈ 2.65 µM)
MIC Enterococcus faecalis (GC 2691) ([1]; inoculum 5×10^5 CFU/mL, strain GC 2691): 4 µg/mL (≈ 2.65 µM)
MIC Enterococcus faecalis (GC 3059) ([1]; inoculum 5×10^5 CFU/mL, strain GC 3059): 4 µg/mL (≈ 2.65 µM)
MIC Enterococcus faecalis (GC 4552) ([1]; inoculum 5×10^5 CFU/mL, strain GC 4552): 4 µg/mL (≈ 2.65 µM)
MIC Enterococcus faecalis (GC 4553) ([1]; inoculum 5×10^5 CFU/mL, strain GC 4553): 4 µg/mL (≈ 2.65 µM)
MIC Enterococcus faecalis (GC 4554) ([1]; inoculum 5×10^5 CFU/mL, strain GC 4554): 4 µg/mL (≈ 2.65 µM)
MIC Enterococcus faecium (GC 4556) ([1]; inoculum 5×10^5 CFU/mL, strain GC 4556): 4 µg/mL (≈ 2.65 µM)
MIC Enterococcus faecium (GC 4557) ([1]; inoculum 5×10^5 CFU/mL, strain GC 4557): 4 µg/mL (≈ 2.65 µM)
MIC Enterococcus avium (GC 4558) ([1]; inoculum 5×10^5 CFU/mL, strain GC 4558): 4 µg/mL (≈ 2.65 µM)
MIC Enterococcus faecalis (GC 6189) ([1]; inoculum 5×10^5 CFU/mL, strain GC 6189): 4 µg/mL (≈ 2.65 µM)
MIC Staphylococcus aureus (ATCC 29213) ([2]; strain ATCC 29213): 4 µg/mL (≈ 2.65 µM)
MIC Staphylococcus aureus (GC 1131) ([2]; strain GC 1131): 4 µg/mL (≈ 2.65 µM)
MIC Staphylococcus aureus (GC 3051) ([2]; strain GC 3051): 4 µg/mL (≈ 2.65 µM)
MIC Staphylococcus aureus (GC 3053) ([2]; strain GC 3053): 4 µg/mL (≈ 2.65 µM)
MIC Staphylococcus aureus (GC 4541) ([2]; strain GC 4541): 4 µg/mL (≈ 2.65 µM)
MIC Staphylococcus aureus (GC 4542) ([2]; strain GC 4542): 4 µg/mL (≈ 2.65 µM)
MIC Staphylococcus aureus-SMITH (GC 4543) ([2]; strain GC 4543): 4 µg/mL (≈ 2.65 µM)
MIC Staphylococcus aureus (GC 4544) ([2]; strain GC 4544): 4 µg/mL (≈ 2.65 µM)
MIC Staphylococcus aureus (GC 4545) ([2]; strain GC 4545): 4 µg/mL (≈ 2.65 µM)
MIC Coagulase Negative Staphylococcus (GC 4547) ([2]; strain GC 4547): 4 µg/mL (≈ 2.65 µM)
MIC Coagulase Negative Staphylococcus (GC 4548) ([2]; strain GC 4548): 4 µg/mL (≈ 2.65 µM)
MIC Coagulase Negative Staphylococcus (GC 4549) ([2]; strain GC 4549): 4 µg/mL (≈ 2.65 µM)
MIC Coagulase Negative Staphylococcus (GC 4551) ([2]; strain GC 4551): 8 µg/mL (≈ 5.29 µM)
MIC Coagulase Negative Staphylococcus (GC 6257) ([2]; strain GC 6257): 4 µg/mL (≈ 2.65 µM)
MIC Streptococcus agalactiae (GC 4564) [3]: 0.25 µg/mL (≈ 0.165 µM)
MIC Streptococcus pneumoniae (ATCC 6301) [3]: 0.12 µg/mL (≈ 0.0794 µM)
MIC Streptococcus pneumoniae (GC 1894) [3]: <0.06 µg/mL
MIC Streptococcus pneumoniae (GC 4565) [3]: 0.12 µg/mL (≈ 0.0794 µM)
MIC Streptococcus pyogenes (GC 4563) [3]: 0.5 µg/mL (≈ 0.331 µM)
MIC Streptococcus pneumoniae (ATCC 6301) ([3]; inoculum 5×10^5 CFU/mL, strain ATCC 6301): 0.12 µg/mL (≈ 0.0794 µM)
MIC Streptococcus pneumoniae (GC 1894) ([3]; inoculum 5×10^5 CFU/mL, strain GC 1894): <0.06 µg/mL
MIC Streptococcus pyogenes (GC 4563) ([3]; inoculum 5×10^5 CFU/mL, strain GC 4563): 0.5 µg/mL (≈ 0.331 µM)
MIC Streptococcus agalactiae (GC 4564) ([3]; inoculum 5×10^5 CFU/mL, strain GC 4564): 0.25 µg/mL (≈ 0.165 µM)
MIC Streptococcus pneumoniae (GC 4565) ([3]; inoculum 5×10^5 CFU/mL, strain GC 4565): 0.12 µg/mL (≈ 0.0794 µM)
MIC Escherichia coli (ATCC 25922) [4]: 64 µg/mL (≈ 42.3 µM)
MIC Escherichia coli (GC 4559) [4]: >64 µg/mL
MIC Escherichia coli (GC 4560) [4]: 8 µg/mL (≈ 5.29 µM)
SMILES: CC(C)CC(=O)OC1C(O)C(OC2C(CO)OC(Oc3ccc(CC4NC(=O)C(C(C)c5ccccc5)NC(=O)CNC(=O)C(CO)NC(=O)C(C(O)C5CNC(=N)N5C5OC(CO)C(O)C(O)C5O)NC(=O)C(C(O)C5CNC(=N)N5)NC4=O)cc3)C(O)C2O)OC2COC3(OC21)C1CC2CC(C1)CC3C2 (stereo not shown) [Example 218]
MIC Staphylococcus haemolyticus (GC 4546) ([2]; strain GC 4546): 4 µg/mL (≈ 2.65 µM)
